Values quoted from earlier work in patent US4318847A, “Physiologically active tetrapeptides” (Zaidan Hojin Biseibutsu Kagaku Kenkyu Kai, priority 1979, dated 1982).
*1 amine or outer side, *2 acyl side, *3 side chain or, on linkers, in order; H or OH if unused. Where a SMILES comes first, the peptide text is derived from it. [ ]: non-standard residue; d: D form. The star is where a group is joined. Sta = CC(C)C[C@H](N)[C@@H](O)CC(=O)O; Isovaleryl = CC(C)CC(=O)*; CO = O=C([*:1])[*:2]

Assays:
leucine aminopeptidase = leucine aminopeptidase (Homo sapiens, UniProt P28838); details: prior art, U.S. Pat. No. 4,029,547; cited from earlier work
aminopeptidase B = aminopeptidase B (Homo sapiens, UniProt Q9H4A4); details: prior art, U.S. Pat. No. 4,029,547; cited from earlier work
aminopeptidase A = aminopeptidase A (Homo sapiens, UniProt Q07075); details: prior art; cited from earlier work
pepsin = pepsin (Homo sapiens, UniProt P0DJD8); details: prior art; cited from earlier work
trypsin = target: T1, trypsin (Bos taurus, UniProt P00760); details: prior art; cited from earlier work
T1 construct: gene PRSS1
T1 sequence (P00760 24-246): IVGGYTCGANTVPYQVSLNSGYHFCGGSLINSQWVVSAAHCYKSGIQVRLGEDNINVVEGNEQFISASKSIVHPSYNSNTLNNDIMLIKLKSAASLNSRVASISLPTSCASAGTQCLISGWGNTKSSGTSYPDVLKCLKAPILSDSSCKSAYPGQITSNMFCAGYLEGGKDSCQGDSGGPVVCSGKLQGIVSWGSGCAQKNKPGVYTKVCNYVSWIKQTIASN

papain = target: T2, papain (Carica papaya, UniProt P00784); details: prior art; cited from earlier work
T2 sequence (P00784 134-345): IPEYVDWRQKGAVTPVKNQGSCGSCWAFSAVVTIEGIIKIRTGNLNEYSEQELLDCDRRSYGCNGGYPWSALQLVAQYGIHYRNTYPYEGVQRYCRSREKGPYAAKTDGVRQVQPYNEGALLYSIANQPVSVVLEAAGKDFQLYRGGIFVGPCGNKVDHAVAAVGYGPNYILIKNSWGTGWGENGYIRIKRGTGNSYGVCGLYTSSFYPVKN

leucine aminopeptidase, sequence (P28838 whole entry): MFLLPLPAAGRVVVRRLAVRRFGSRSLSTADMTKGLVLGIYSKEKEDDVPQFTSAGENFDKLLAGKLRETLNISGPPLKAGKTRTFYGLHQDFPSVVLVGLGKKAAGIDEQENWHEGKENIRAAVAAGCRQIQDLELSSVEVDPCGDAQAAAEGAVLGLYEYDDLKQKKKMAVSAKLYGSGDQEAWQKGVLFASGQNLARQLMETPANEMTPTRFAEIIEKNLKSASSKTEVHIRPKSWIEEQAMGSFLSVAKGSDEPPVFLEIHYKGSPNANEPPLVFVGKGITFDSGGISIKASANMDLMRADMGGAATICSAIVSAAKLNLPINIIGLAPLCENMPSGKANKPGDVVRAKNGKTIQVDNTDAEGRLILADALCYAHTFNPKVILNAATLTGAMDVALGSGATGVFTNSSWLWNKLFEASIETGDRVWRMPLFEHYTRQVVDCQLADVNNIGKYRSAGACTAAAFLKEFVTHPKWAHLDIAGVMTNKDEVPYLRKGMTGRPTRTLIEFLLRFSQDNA
aminopeptidase B, sequence (Q9H4A4 whole entry, species assumed): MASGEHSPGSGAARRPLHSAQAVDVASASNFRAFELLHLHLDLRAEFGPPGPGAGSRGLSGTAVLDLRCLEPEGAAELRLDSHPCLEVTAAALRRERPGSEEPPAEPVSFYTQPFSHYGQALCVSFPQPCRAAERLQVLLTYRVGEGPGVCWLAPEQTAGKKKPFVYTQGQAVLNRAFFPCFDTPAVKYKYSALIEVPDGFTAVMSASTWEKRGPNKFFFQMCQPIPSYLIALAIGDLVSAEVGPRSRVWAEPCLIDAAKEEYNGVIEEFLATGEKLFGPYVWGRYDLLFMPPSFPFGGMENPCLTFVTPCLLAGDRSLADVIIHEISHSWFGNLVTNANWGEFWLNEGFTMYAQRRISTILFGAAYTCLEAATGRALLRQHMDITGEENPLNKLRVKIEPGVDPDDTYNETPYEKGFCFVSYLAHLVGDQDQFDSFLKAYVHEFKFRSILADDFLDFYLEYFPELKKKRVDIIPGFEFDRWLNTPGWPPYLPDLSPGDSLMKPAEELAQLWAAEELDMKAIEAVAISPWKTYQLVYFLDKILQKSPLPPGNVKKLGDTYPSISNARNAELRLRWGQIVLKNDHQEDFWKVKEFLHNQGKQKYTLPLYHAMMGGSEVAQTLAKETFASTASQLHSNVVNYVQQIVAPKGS
pepsin, sequence (P0DJD8 63-388): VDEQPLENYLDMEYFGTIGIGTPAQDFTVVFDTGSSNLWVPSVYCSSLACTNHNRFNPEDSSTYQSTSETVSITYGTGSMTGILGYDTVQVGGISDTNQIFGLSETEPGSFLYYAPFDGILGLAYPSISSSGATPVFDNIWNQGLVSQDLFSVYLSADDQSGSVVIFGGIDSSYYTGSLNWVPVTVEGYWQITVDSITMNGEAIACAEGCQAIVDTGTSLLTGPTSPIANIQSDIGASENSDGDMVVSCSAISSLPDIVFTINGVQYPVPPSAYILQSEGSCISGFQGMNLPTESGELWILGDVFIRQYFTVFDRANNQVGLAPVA
aminopeptidase A, sequence (Q07075 whole entry, species assumed): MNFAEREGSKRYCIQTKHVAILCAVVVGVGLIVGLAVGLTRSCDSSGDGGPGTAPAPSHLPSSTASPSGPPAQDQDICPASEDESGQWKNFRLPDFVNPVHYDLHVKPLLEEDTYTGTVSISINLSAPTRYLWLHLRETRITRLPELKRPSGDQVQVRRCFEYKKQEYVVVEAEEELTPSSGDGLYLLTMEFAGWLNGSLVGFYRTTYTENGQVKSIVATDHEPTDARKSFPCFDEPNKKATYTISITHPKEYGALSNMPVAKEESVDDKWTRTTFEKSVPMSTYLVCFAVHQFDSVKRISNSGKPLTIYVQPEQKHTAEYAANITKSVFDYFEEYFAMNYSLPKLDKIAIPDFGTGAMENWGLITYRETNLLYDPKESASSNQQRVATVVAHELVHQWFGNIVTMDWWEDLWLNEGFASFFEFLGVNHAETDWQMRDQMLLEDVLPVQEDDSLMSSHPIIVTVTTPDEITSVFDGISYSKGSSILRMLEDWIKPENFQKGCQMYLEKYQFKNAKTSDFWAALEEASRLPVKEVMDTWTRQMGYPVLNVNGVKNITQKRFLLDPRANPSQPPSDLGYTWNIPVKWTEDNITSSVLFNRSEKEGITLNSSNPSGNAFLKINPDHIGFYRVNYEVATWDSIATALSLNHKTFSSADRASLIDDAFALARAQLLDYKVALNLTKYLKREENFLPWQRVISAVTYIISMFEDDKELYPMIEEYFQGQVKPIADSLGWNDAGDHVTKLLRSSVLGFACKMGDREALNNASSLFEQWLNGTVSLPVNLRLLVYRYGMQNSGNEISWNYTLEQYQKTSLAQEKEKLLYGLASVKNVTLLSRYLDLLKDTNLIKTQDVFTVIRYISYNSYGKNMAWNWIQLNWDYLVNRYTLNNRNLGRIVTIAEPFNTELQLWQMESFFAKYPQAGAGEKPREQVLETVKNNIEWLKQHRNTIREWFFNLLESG

CC(C)C[C@H](NC(=O)[C@@H](O)[C@H](N)Cc1ccccc1)C(=O)O [Bestatin, [(2S,3R)-3-amino-2-hydroxy-4-phenylbutanoyl]-L-leucine]
inhibition of leucine aminopeptidase (leucine aminopeptidase): inhibits | inhibition of aminopeptidase B (aminopeptidase B): inhibits | inhibition of aminopeptidase A (aminopeptidase A): does not have any inhibitory effect

CC(C)CC(=O)N[C@H](C(=O)N[C@H](C(=O)N[C@@H](CC(C)C)[C@@H](O)CC(=O)N[C@@H](C)C(=O)N[C@@H](CC(C)C)[C@@H](O)CC(=O)O)C(C)C)C(C)C [pepstatin] (Isovaleryl-VV[Sta]A[Sta]-OH)
inhibition of pepsin (pepsin): inhibit

CC(=O)N[C@@H](CC(C)C)C(=O)N[C@@H](CC(C)C)C(=O)N[C@H](C=O)CCCNC(=N)N [leupeptin]
inhibition of trypsin (trypsin): inhibit

CC(C)[C@H](NC(=O)[C@H](CCCNC(=N)N)NC(=O)N[C@@H](Cc1ccccc1)C(=O)O)C(=O)N[C@H](C=O)CCCNC(=N)N [antipain] ({Phe-CO}-Arg-Val-Arg-aldehyde)
inhibition of papain (papain): inhibit
